Assay results from article PMC11219860, “A chemogenetic approach for dopamine imaging with tunable sensitivity” (Nature Communications, 2024).
Read-outs that look alike come from different tables or passages of the source.

Experiments:
[1] = system: dLight1.3b-expressing HEK293T sniffer cells on primary DArgic neurons; assay: DA release imaging from cultured DArgic neurons with dLight1.3b sniffer cells; type: cell-based, mouse; details: DETQ 200 nM added to 4-AP perfusion
Protocol: Primary DA (DA) neurons were grown on a layer of cortical astrocytes. The astrocytes were first prepared from P0-P2 C57BL6 mice, grown in T75 flask and then seeded on collagen/poly-L-lysine coated 15 mm glass coverslips at a concentration of 100,000 cells/ml. The cells were allowed to grow until close to confluence before the seeding of neurons. Primary DArgic neurons were prepared and cultured from P0-P2 mouse pups using a previously described protocol. Briefly, the ventral midbrain of P0-P2 pups was dissected from DAT^IREScre x Ai9 mice in which DA neurons expressed the red fluorescent protein tdTomato. These were produced by crossing DAT^IREScre mice (catalog #006660, Jackson Labs[31]) to Ai9/tdTomato mice (catalog #007905, Jackson Labs[32]). Both of these lines were on a C57BL/6 J background. Midbrain cells were seeded at a concentration of 240,000 cells/ml on top of the astrocyte monolayer and allowed to grow for 10 days (10 DIV). Two days before imaging, expression of dLight1.3b was induced in stable HEK cells with doxycycline. One day prior to imaging, HEK cells were lifted using trypsin, and 150,000 HEK cells were seeded on top of 10 DIV-cultured neurons in doxycycline-supplemented neuronal medium. Imaging was performed on a confocal microscope (Nikon A1 HD25) using a 40X dry objective and a 488 nm laser to excite dLight1.3b and a 546 nm laser to activate tdTomato and identify DA neurons. On the day of imaging, physiological saline containing drugs at the specified concentration ([…], Sigma; SCH23390, Sigma; DETQ, Enamine) were applied on the culture using a computer-controlled perfusion system (Automate system). A field containing one or more DA neurons was selected based on the tdTomato signal. […]
Event detection was performed using a thresholding algorithm adapted from[80]. In brief, the recorded field of view was divided into square ROIs of 55 um x 55 um size. […] A rolling standard deviation was calculated with the same window size. Events were defined as timepoints at which the fluorescence intensity reading exceeds the averaged intensity by 5 standard deviations.

AlloLite-ctr = assay: In vivo photometry of AlloLite-ctr in NAc; set-up: species or system mouse; details: DETQ 10 mg/kg
Protocol: Fiber photometry combined with optogenetics was conducted using a RZ10X LUX-I/O Processor with integrated LEDs (Tucker-Davis Technologies) combined with a filter/mirror minicube set (FMC6_IE(400-410)_E1(467-497)_F1(507-554)_E2(566-586)_F2(600-680)_S) (Doric Lenses). […] Low-autofluorescence patch cords (400 µm/0.57 NA, Doric) were attached to the optic fibers (400 µm/0.66 NA, Doric) on the mouse’s head to collect fluorescence emissions. Signals were filtered through 500–540 nm GFP emission filters coupled to a photodetector on the RZ10X. […] Data were sampled at 1017.3 Hz. […] For optogenetic stimulation, a 635 nm LED was passed through the 580–680 nm minicube F2 port and reached the mouse through the same unique optic fiber; the LED was driven at 1 to 3 mW. To determine the ‘temporal window for stable imaging’ in the PFC using dLight1.3b recordings, DAT^IREScre mice expressing ChrimsonR in VTA DA axons and dLight1.3b in the PFC were injected i.p. with vehicle at 0 min, followed by DETQ (10 mg/kg) 25 min later. […] DA release was measured with fiber photometry. […] After each injection, NAc DA axons were optically (opto) activated across 3 trials (2 s, 20 Hz, 20-ms pulses) every 5 min and DA released measured with fiber photometry. […] After each injection, NAc DA axons were optically (opto) inhibited (10 s, continuous trials) every 3 min (8 trials/condition) and DA released measured with fiber photometry. […] DA release was measured with fiber photometry.
For long-term recordings during optogenetic stimulation or chemogenetic inhibition linear fit was calculated across the entire recording or across the vehicle epoch; for event-related experiments fit was performed on fluorescent data obtained in the −60 to +60 s around opto events or −5 to −1 s around behavioral events. […] DA event-related responses were quantified by computing the value at the transient’s peak value and the AUC in the 0 to 10 s or 0 to 60 s period post-event onset. […]

[2] = set-up: method as in Rajagopal et al., 2024; details: ref Rajagopal et al., 2024, cited from earlier work

C[C@H]1c2cccc(C(C)(C)O)c2C[C@H](CO)N1C(=O)Cc1c(Cl)cccc1Cl [DETQ, 2-(2,6-dichlorophenyl)-1-((1S,3R)-3-(hydroxymethyl)-5-(2-hydroxypropan-2-yl)-1-methyl-3,4-dihydroisoquinolin-2(1H)-yl)ethan-1-one]
number of detected phasic DA release events [1]: increased | sensor baseline signal (tonic DA) [1]: long-lasting increase | increase in baseline signal after DETQ administration (AlloLite-ctr): completely absent | opto-evoked DA peaks of AlloLite-ctr upon DETQ (AlloLite-ctr): retained the same amplitude and kinetics | deficits in Novel Object Recognition and Social Interaction ([2]; aged hD1 mice, PO 3-10 mg/kg): fully reversed these deficits | deficits in Novel Object Recognition and Social Interaction ([2]; aged wild type mice): failed to reverse these deficits
